In the assay the test system is BDF1 mice, B16 melanoma ip, median survival T/C. In words: NCI In Vivo Anticancer Drug Screen. Data for tumor model B16 Melanoma (intraperitoneal) in B6D2F1 (BDF1) mice. The following applies: endpoint: median survival time, higher = longer survival. A digest of the protocol: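 Each result divides a survival or tumor-size measurement in the compound-treated group by the same measurement in the vehicle group.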

The mark [1] stands for this setting: dose: 12.5 mg/kg/injection, schedule: Q01DX009 (ip), vehicle: saline with Tween-80.
Setting [2] is: dose: 25.0 mg/kg/injection, schedule: Q01DX009 (ip), vehicle: saline with Tween-80.
The mark [3] stands for this setting: dose: 50.0 mg/kg/injection, schedule: Q01DX009 (ip), vehicle: saline with Tween-80.
The mark [4] stands for this setting: dose: 100.0 mg/kg/injection, schedule: Q01DX009 (ip), vehicle: saline with Tween-80.
Setting [5] is: dose: 100.0 mg/kg/injection, schedule: Q01DX009 (ip), vehicle: saline.
[6] abbreviates: dose: 6.25 mg/kg/injection, schedule: Q01DX009 (ip), vehicle: saline.
Where [7] appears, read: dose: 6.25 mg/kg/injection, schedule: Q04DX003 (ip), vehicle: saline with Tween-80.
Where [8] appears, read: dose: 12.5 mg/kg/injection, schedule: Q04DX003 (ip), vehicle: saline with Tween-80.
[9] abbreviates: dose: 50.0 mg/kg/injection, schedule: Q01DX009 (ip), vehicle: Klucel (hydroxypropylcellulose) (HPC).
Where [10] appears, read: dose: 100.0 mg/kg/injection, schedule: Q01DX009 (ip), vehicle: Klucel (hydroxypropylcellulose) (HPC).
The mark [11] stands for this setting: dose: 200.0 mg/kg/injection, schedule: Q01DX009 (ip), vehicle: Klucel (hydroxypropylcellulose) (HPC).
Where [12] appears, read: dose: 400.0 mg/kg/injection, schedule: Q01DX009 (ip), vehicle: Klucel (hydroxypropylcellulose) (HPC).
The mark [13] stands for this setting: dose: 25.0 mg/kg/injection, schedule: Q01DX009 (ip), vehicle: Klucel (hydroxypropylcellulose) (HPC).
The mark [14] stands for this setting: dose: 0.38 mg/kg/injection, schedule: Q01DX009 (ip), vehicle: saline.
[15] abbreviates: dose: 0.75 mg/kg/injection, schedule: Q01DX009 (ip), vehicle: saline.
The mark [16] stands for this setting: dose: 1.5 mg/kg/injection, schedule: Q01DX009 (ip), vehicle: saline.
Where [17] appears, read: dose: 3.0 mg/kg/injection, schedule: Q01DX009 (ip), vehicle: saline.

Values joined by “and” are separate entries in the source; they are usually repeats but may differ in a detail not shown here. Equal entries are not always repeated. Toxic doses and inconclusive results are not listed. Peptide text beside a SMILES is read from it. * marks the point of attachment. Boc = CC(C)(C)OC(=O)*

For 24 compounds, T/C results are on record in PubChem BioAssay AID192 (DTP/NCI, 2004).

As for `Nc1nc(=S)c2n[nH]nc2[nH]1`, the T/C is 96 % of control under setting [1], 108 % of control under setting [2], 113 % of control under setting [3] and 88 % of control under setting [4].

For `COc1ccc(/C(C)=N\NC(=O)c2ccccc2)cc1`, the T/C runs as follows: (dose: 50.0 mg/kg/injection, schedule: Q04DX003 (ip), vehicle: Klucel (hydroxypropylcellulose) (HPC)) 95 % of control; (dose: 100.0 mg/kg/injection, schedule: Q04DX003 (ip), vehicle: Klucel (hydroxypropylcellulose) (HPC)) 102 % of control; (dose: 200.0 mg/kg/injection, schedule: Q04DX003 (ip), vehicle: Klucel (hydroxypropylcellulose) (HPC)) 87 % of control.

`CC(C)(C)OC(=O)NCC(=O)NCC(=O)O` (Boc-Gly-Gly-OH): the T/C (dose: 50.0 mg/kg/injection, schedule: Q01DX009 (ip), vehicle: saline) is 94 % of control and the T/C under setting [5] was 96 % of control.

`COc1ccc2c(=O)c(C)c(C)oc2c1CN1CCOCC1`: the T/C is, setting by setting: (dose: 0.39 mg/kg/injection, schedule: Q01DX009 (ip), vehicle: saline) 104 % of control; (dose: 0.78 mg/kg/injection, schedule: Q01DX009 (ip), vehicle: saline) 114 % of control; (dose: 1.56 mg/kg/injection, schedule: Q01DX009 (ip), vehicle: saline) 108 % of control; (dose: 3.12 mg/kg/injection, schedule: Q01DX009 (ip), vehicle: saline) 98 % of control; under setting [6], 115 % of control.

Turning to `Nc1nccc2c1ncn2C1OC(CO)C(O)C1O` (stereo unspecified), the T/C (dose: 4.6 mg/kg/injection, schedule: Q03HX024 (ip), vehicle: saline with Tween-80) was 90 % of control and 109 % of control; the T/C (dose: 9.3 mg/kg/injection, schedule: Q03HX024 (ip), vehicle: saline with Tween-80) was 94 % of control and 117 % of control; the T/C (dose: 18.7 mg/kg/injection, schedule: Q03HX024 (ip), vehicle: saline with Tween-80) was 98 % of control; the T/C (dose: 37.5 mg/kg/injection, schedule: Q03HX024 (ip), vehicle: saline with Tween-80) is 94 % of control.

For the compound `COc1ccc2c(ccc[n+]2C)c1`, the T/C by setting is: under setting [6], 93 % of control; (dose: 12.5 mg/kg/injection, schedule: Q01DX009 (ip), vehicle: saline) 90 % of control; (dose: 12.5 mg/kg/injection, schedule: Q04DX003 (ip), vehicle: saline) 100 % of control; (dose: 25.0 mg/kg/injection, schedule: Q01DX009 (ip), vehicle: saline) 95 % of control; (dose: 25.0 mg/kg/injection, schedule: Q04DX003 (ip), vehicle: saline) 100 % of control; (dose: 50.0 mg/kg/injection, schedule: Q04DX003 (ip), vehicle: saline) 104 % of control.

As for `Nc1ccc2c(c1)CN1C(=O)c3ccccc3C1=N2`, the T/C under setting [1] was 101 % of control, the T/C under setting [2] was 103 % of control and the T/C under setting [3] is 111 % of control.

As to `CC1(C)N=C(N)N=C(N)N1c1cccc(CCCCOc2ccccc2)c1`, the T/C was 95 % of control (dose: 3.13 mg/kg/injection, schedule: Q01DX009 (ip), vehicle: saline with Tween-80); 109 % of control (dose: 3.13 mg/kg/injection, schedule: Q04DX003 (ip), vehicle: saline with Tween-80); 102 % of control (dose: 6.25 mg/kg/injection, schedule: Q01DX009 (ip), vehicle: saline with Tween-80); 109 % of control under setting [7]; 102 % of control under setting [1]; 107 % of control under setting [8].

`CC1(C)C2CCC1C(CO)C2` (stereo unspecified): the T/C under setting [9] was 100 % of control, the T/C under setting [10] was 103 % of control and the T/C under setting [11] is 90 % of control.

Turning to `Cc1ccc2c(c1)C(=O)c1ccccc1S2(=O)=O`, the T/C under setting [10] was 104 % of control, the T/C under setting [11] is 98 % of control and the T/C under setting [12] is 93 % of control.

Regarding `Cn1c[n+](C)cc1C(=O)[O-]`, the T/C under setting [5] was 115 % of control; the T/C (dose: 200.0 mg/kg/injection, schedule: Q01DX009 (ip), vehicle: saline) is 115 % of control; the T/C (dose: 400.0 mg/kg/injection, schedule: Q01DX009 (ip), vehicle: saline) is 109 % of control.

As for `CN(C)c1ccc2c(SCC(=O)OCC(=O)[C@@]3(O)CC[C@H]4[C@@H]5CCC6=CC(=O)C=C[C@]6(C)[C@H]5C(=O)C[C@@]43C)c3ccc(N(C)C)cc3nc2c1`, the T/C by setting is: under setting [13], 101 % of control; under setting [9], 96 % of control; under setting [10], 101 % of control; under setting [11], 113 % of control; under setting [12], 98 % of control.

For the compound `O=C(CC(=Nc1ccccc1)c1ccccc1)c1ccccc1.O=C(CC(=Nc1ccccc1)c1ccccc1)c1ccccc1.[Cu]`, the T/C under setting [7] was 93 % of control; the T/C under setting [8] is 86 % of control; the T/C (dose: 25.0 mg/kg/injection, schedule: Q04DX003 (ip), vehicle: saline with Tween-80) is 91 % of control.

With `CC(=O)OCC(COC(C)=O)(COC(C)=O)COC(C)=O`, the T/C under setting [4] is 105 % of control; the T/C (dose: 200.0 mg/kg/injection, schedule: Q01DX009 (ip), vehicle: saline with Tween-80) is 105 % of control; the T/C (dose: 400.0 mg/kg/injection, schedule: Q01DX009 (ip), vehicle: saline with Tween-80) is 100 % of control.

Consider `O=C(Nc1cc(C(F)(F)F)ccc1Cl)c1cccc(C(=O)Nc2cc(C(F)(F)F)ccc2Cl)c1`, for which the T/C (dose: 12.5 mg/kg/injection, schedule: Q01DX009 (ip), vehicle: Klucel (hydroxypropylcellulose) (HPC)) is 101 % of control; the T/C under setting [13] is 101 % of control; the T/C under setting [9] is 101 % of control.

For the compound `Cc1ccc(Cl)cc1NC(=O)c1ccccc1C(=O)O`, the T/C by setting is: under setting [10], 93 % of control; under setting [11], 93 % of control; under setting [12], 103 % of control.

`O=C1CCC2(CCC(=O)c3ccccc32)C(=O)N1` (stereo unspecified): the T/C under setting [9] is 119 % of control, the T/C under setting [10] is 114 % of control and the T/C under setting [11] was 116 % of control.

For `CCOC(=O)C(CC)c1ccccc1` (stereo unspecified), the T/C runs as follows: under setting [3], 91 % of control; under setting [4], 95 % of control.

Turning to `O=C(CCc1ccc(O)cc1)c1c(O)cc(O)cc1O`, the T/C was 110 % of control (dose: 50.0 mg/kg/injection, schedule: Q01DX009 (ip), vehicle: saline + alcohol); 102 % of control (dose: 100.0 mg/kg/injection, schedule: Q01DX009 (ip), vehicle: saline + alcohol); 107 % of control (dose: 400.0 mg/kg/injection, schedule: Q01DX009 (ip), vehicle: saline + alcohol).

Turning to `CC(=N\O)/C(C)=N/O.CC(=N\O)/C(C)=N/O.CCCC1CC[N-]CC1.CCCC1CC[N-]CC1.CCCC1CC[N-]CC1.CCCC1CC[N-]CC1.[Cl-].[Cl-].[Cl][Rh][Cl].[Rh+3]`, the T/C by setting is: (dose: 0.19 mg/kg/injection, schedule: Q01DX009 (ip), vehicle: saline) 104 % of control; under setting [14], 107 % of control; under setting [15], 104 % of control; under setting [16], 103 % of control; under setting [17], 105 % of control.

Regarding `CCCCCC/C=C/[N+]([O-])=NC(COC)C(C)O` (stereo unspecified), the T/C (dose: 5.0 mg/kg/injection, schedule: Q01DX009 (ip), vehicle: Klucel (hydroxypropylcellulose) (HPC)) was 107 % of control and the T/C (dose: 10.0 mg/kg/injection, schedule: Q01DX009 (ip), vehicle: Klucel (hydroxypropylcellulose) (HPC)) is 105 % of control.

For the compound `COc1cccc2c1C(=O)c1c(O)c3c(c(O)c1C2=O)C[C@@](O)(/C(C)=N\NC=O)C[C@@H]3OC1CC(N)C(O)C(C)O1` (stereo partly specified), the T/C by setting is: under setting [14], 112 % of control; under setting [15], 117 % of control; under setting [16], 150 % of control; under setting [17], 174 % of control; (dose: 6.0 mg/kg/injection, schedule: Q01DX009 (ip), vehicle: saline) 216 % of control; (dose: 12.0 mg/kg/injection, schedule: Q01DX009 (ip), vehicle: saline) 211 % of control.

For `CCCCCCCCC(O)CC` (stereo unspecified), the T/C reads like this: under setting [9], 98 % of control; under setting [10], 97 % of control; under setting [11], 93 % of control.

On to `COc1cc(NC(=O)CC(C)=O)cc2c(C)cc(=O)n(C)c12`, for which the T/C reads like this: under setting [10], 96 % of control; under setting [11], 100 % of control; under setting [12], 100 % of control.
